Experimental data published in ChEMBL document CHEMBL4411296, “Design and development of Isatin-triazole hydrazones as potential inhibitors of microtubule affinity-regulating kinase 4 for the therapeutic management of cell proliferation and metastasis” (Eur J Med Chem, 2019).

How the values were obtained:
Format in all cases: functional
SK-OV-3 = experiment: Growth inhibition of human SKOV3 cells assessed as cell growth at 10 uM after 48 hrs by sulforhodamine B assay relative to control; settings: SK-OV-3, 48 h, read-out: Activity
MDA-MB-231 = experiment: Growth inhibition of human MDA-MB-231 cells assessed as cell growth at 10 uM after 48 hrs by sulforhodamine B assay relative to control; settings: MDA-MB-231, 48 h, read-out: Activity
PC-3 = experiment: Growth inhibition of human PC3 cells assessed as cell growth at 10 uM after 48 hrs by sulforhodamine B assay relative to control; settings: PC-3, 48 h, read-out: Activity
BT-549 = experiment: Growth inhibition of human BT549 cells assessed as cell growth at 10 uM after 48 hrs by sulforhodamine B assay relative to control; settings: BT-549, 48 h, read-out: Activity
NCI/ADR-RES = experiment: Growth inhibition of human NCI/ADR-RES cells assessed as cell growth at 10 uM after 48 hrs by sulforhodamine B assay relative to control; settings: read-out: Activity
OVCAR-4 = experiment: Growth inhibition of human OVCAR4 cells assessed as cell growth at 10 uM after 48 hrs by sulforhodamine B assay relative to control; settings: OVCAR-4, 48 h, read-out: Activity
HCC 2998 = experiment: Growth inhibition of human HCC2998 cells assessed as cell growth at 10 uM after 48 hrs by sulforhodamine B assay relative to control; settings: HCC 2998, 48 h, read-out: Activity
SNB-19 = experiment: Growth inhibition of human SNB19 cells assessed as cell growth at 10 uM after 48 hrs by sulforhodamine B assay relative to control; settings: SNB-19, 48 h, read-out: Activity
HT-29 = experiment: Growth inhibition of human HT-29 cells assessed as cell growth at 10 uM after 48 hrs by sulforhodamine B assay relative to control; settings: HT-29, 48 h, read-out: Activity
SF-539 = experiment: Growth inhibition of human SF539 cells assessed as cell growth at 10 uM after 48 hrs by sulforhodamine B assay relative to control; settings: SF-539, 48 h, read-out: Activity
T47D = experiment: Growth inhibition of human T47D cells assessed as cell growth at 10 uM after 48 hrs by sulforhodamine B assay relative to control; settings: read-out: Activity
ACHN = experiment: Growth inhibition of human ACHN cells assessed as cell growth at 10 uM after 48 hrs by sulforhodamine B assay relative to control; settings: read-out: Activity
SK-MEL-2 = experiment: Growth inhibition of human SK-MEL-2 cells assessed as cell growth at 10 uM after 48 hrs by sulforhodamine B assay relative to control; settings: SK-MEL-2, 48 h, read-out: Activity
COLO 205 = experiment: Growth inhibition of human COLO205 cells assessed as cell growth at 10 uM after 48 hrs by sulforhodamine B assay relative to control; settings: COLO 205, 48 h, read-out: Activity
K562 = experiment: Growth inhibition of human K562 cells assessed as cell growth at 10 uM after 48 hrs by sulforhodamine B assay relative to control; settings: K562, 48 h, read-out: Activity
KM12 = experiment: Growth inhibition of human KM12 cells assessed as cell growth at 10 uM after 48 hrs by sulforhodamine B assay relative to control; settings: KM12, 48 h, read-out: Activity
Malme-3M = experiment: Growth inhibition of human MALME-3M cells assessed as cell growth at 10 uM after 48 hrs by sulforhodamine B assay relative to control; settings: read-out: Activity
SF-295 = experiment: Growth inhibition of human SF295 cells assessed as cell growth at 10 uM after 48 hrs by sulforhodamine B assay relative to control; settings: SF-295, 48 h, read-out: Activity
LOX IMVI = experiment: Growth inhibition of human LOXIMVI cells assessed as cell growth at 10 uM after 48 hrs by sulforhodamine B assay relative to control; settings: read-out: Activity
UO-31 = experiment: Growth inhibition of human UO31 cells assessed as cell growth at 10 uM after 48 hrs by sulforhodamine B assay relative to control; settings: UO-31, 48 h, read-out: Activity
SW-620 = experiment: Growth inhibition of human SW620 cells assessed as cell growth at 10 uM after 48 hrs by sulforhodamine B assay relative to control; settings: SW-620, 48 h, read-out: Activity
NCI-H23 = experiment: Growth inhibition of human NCI-H23 cells assessed as cell growth at 10 uM after 48 hrs by sulforhodamine B assay relative to control; settings: NCI-H23, 48 h, read-out: Activity
Hs-578T = experiment: Growth inhibition of human Hs 578T cells assessed as cell growth at 10 uM after 48 hrs by sulforhodamine B assay relative to control; settings: read-out: Activity
SR = experiment: Growth inhibition of human SR cells assessed as cell growth at 10 uM after 48 hrs by sulforhodamine B assay relative to control; settings: read-out: Activity
NCI-H522 = experiment: Growth inhibition of human NCI-H522 cells assessed as cell growth at 10 uM after 48 hrs by sulforhodamine B assay relative to control; settings: NCI-H522, 48 h, read-out: Activity
U-251 = experiment: Growth inhibition of human U251 cells assessed as cell growth at 10 uM after 48 hrs by sulforhodamine B assay relative to control; settings: U-251, 48 h, read-out: Activity
HOP-92 = experiment: Growth inhibition of human HOP92 cells assessed as cell growth at 10 uM after 48 hrs by sulforhodamine B assay relative to control; settings: HOP-92, 48 h, read-out: Activity

Row | Structure (SMILES) | growth at 10 µM (SK-OV-3) | growth at 10 µM (MDA-MB-231) | growth at 10 µM (PC-3) | growth at 10 µM (BT-549) | growth at 10 µM (NCI/ADR-RES) | growth at 10 µM (OVCAR-4) | growth at 10 µM (HCC 2998) | growth at 10 µM (SNB-19) | growth at 10 µM (HT-29) | growth at 10 µM (SF-539) | growth at 10 µM (T47D) | growth at 10 µM (ACHN) | growth at 10 µM (SK-MEL-2) | growth at 10 µM (COLO 205) | growth at 10 µM (K562) | growth at 10 µM (KM12) | growth at 10 µM (Malme-3M) | growth at 10 µM (LOX IMVI) | growth at 10 µM (UO-31) | growth at 10 µM (SW-620) | further results
1 | COc1ccc(Cn2cc(C(=O)N/N=C3/C(=O)Nc4ccc(C)cc43)nn2)cc1 | 113% | 110% | 97.3% | 112% | 100% | 104% | 99.9% | 98% | 87.1% | 103% | 104% | 111% | 92.9% | 107% | 87.8% | 95.4% | 106% | 102% | 95% | 104% | growth at 10 µM (SF-295): 111%; growth at 10 µM (NCI-H23): 104%; growth at 10 µM (Hs-578T): 106%; growth at 10 µM (SR): 86%; growth at 10 µM (NCI-H522): 83.6%; growth at 10 µM (U-251): 105%; growth at 10 µM (HOP-92): 121%
2 | COc1ccc(Cn2cc(C(=O)N/N=C3/C(=O)Nc4ccccc43)nn2)cc1 | 113% | 101% | 103% | 115% | 97.2% | 108% | 110% | 98% | 99.2% | 108% | 113% | 107% | 94.8% | 108% | 90.5% | 101% | 97.2% | 102% | 84.8% | 101% | growth at 10 µM (SF-295): 103%; growth at 10 µM (NCI-H23): 103%; growth at 10 µM (Hs-578T): 109%; growth at 10 µM (SR): 94.8%; growth at 10 µM (NCI-H522): 87.8%; growth at 10 µM (U-251): 92.2%; growth at 10 µM (HOP-92): 112%
3 | COc1ccc(Cn2cc(C(=O)N/N=C3/C(=O)Nc4ccc(F)c(Cl)c43)nn2)cc1 | 116% | 109% | 105% | 117% | 104% | 104% | 104% | 101% | 98% | 111% | 110% | 111% | 95.6% | 115% | 90.8% | 101% | 103% | 100% | 92.4% | 106% | growth at 10 µM (NCI-H23): 98%; growth at 10 µM (Hs-578T): 112%; growth at 10 µM (SR): 99.5%; growth at 10 µM (NCI-H522): 84%; growth at 10 µM (U-251): 103%; growth at 10 µM (HOP-92): 129%
4 | COc1ccc(Cn2cc(C(=O)N/N=C3/C(=O)Nc4c(F)cccc43)nn2)cc1 | 102% | 96.3% | 83.3% | 105% | 96.9% | 61.5% | 102% | 94.2% | 86.5% | 92.7% | 66.8% | 86.4% | 93.3% | 95% | 88% | 101% | 78.2% | 97.8% | 77% | 92.7% | growth at 10 µM (SF-295): 98%; growth at 10 µM (NCI-H23): 90.1%; growth at 10 µM (Hs-578T): 101%; growth at 10 µM (SR): 90.3%; growth at 10 µM (NCI-H522): 88.6%; growth at 10 µM (U-251): 94.6%; growth at 10 µM (HOP-92): 83.8%
5 | COc1ccc(Cn2cc(C(=O)N/N=C3/C(=O)Nc4ccc(Br)cc43)nn2)cc1 | 108% | 108% | 99.8% | 111% | 103% | 105% | 98.5% | 97.3% | 88.5% | 104% | 106% | 110% | 98% | 115% | 88.1% | 104% | -89.9% | 107% | 91.5% | 107% | growth at 10 µM (SF-295): 95.8%; growth at 10 µM (NCI-H23): 102%; growth at 10 µM (Hs-578T): 114%; growth at 10 µM (SR): 77.5%; growth at 10 µM (NCI-H522): 89.1%; growth at 10 µM (U-251): 105%; growth at 10 µM (HOP-92): 114%
